Assay results published in PubChem BioAssay AID248 (DTP/NCI, 2004).
Values joined by “and” are separate entries in the source; they are usually repeats but may differ in a detail not shown here. Identical values can stand only once. Toxic doses and inconclusive results are not listed.

Tested on: L1210 leukemia ip in BDF1 mice, survival T/C
Assay: NCI In Vivo Anticancer Drug Screen. Data for tumor model L1210 Leukemia (intraperitoneal) in B6D2F1 (BDF1) mice
Details: endpoint: mean survival time, higher = longer survival
How it was run: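 Value reflects the ratio of survival in compound-treated mice to survival in vehicle-treated controls, with both groups carrying the same transplanted tumor.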

[1] = dose: 100.0 mg/kg/injection, schedule: Q04DX003 (ip), vehicle: Klucel (hydroxypropylcellulose) (HPC)
[2] = dose: 200.0 mg/kg/injection, schedule: Q04DX003 (ip), vehicle: Klucel (hydroxypropylcellulose) (HPC)
[3] = dose: 75.0 mg/kg/injection, schedule: Q04DX003 (ip), vehicle: saline
[4] = dose: 100.0 mg/kg/injection, schedule: Q01DX001 (ip), vehicle: carboxymethylcellulose (CMC)
[5] = dose: 200.0 mg/kg/injection, schedule: Q01DX001 (ip), vehicle: carboxymethylcellulose (CMC)
[6] = dose: 400.0 mg/kg/injection, schedule: Q01DX001 (ip), vehicle: carboxymethylcellulose (CMC)

**Q.** What does the source list for `COc1cc2c3c(c4ccc(OC)c(OC)c4c2cc1OC)CN1CCC[C@@H]1C3`?
**A.** T/C (dose: 1.25 mg/kg/injection, schedule: Q01DX Z (im), vehicle: water): 103 % of control; T/C (dose: 1.25 mg/kg/injection, schedule: Q01DX Z (ip), vehicle: water): 103 % of control; T/C (dose: 1.25 mg/kg/injection, schedule: Q01DX Z (sc), vehicle: water): 106 % of control; T/C (dose: 1.25 mg/kg/injection, schedule: Q02DX Z (ip), vehicle: water): 105 % of control; T/C (dose: 2.2 mg/kg/injection, schedule: Q01DX Z (ip), vehicle: carboxymethylcellulose (CMC)): 111 % of control; T/C (dose: 2.2 mg/kg/injection, schedule: Q01DX Z (ip), vehicle: other): 107 % of control; T/C (dose: 2.5 mg/kg/injection, schedule: Q01DX Z (im), vehicle: water): 111 % of control; T/C (dose: 2.5 mg/kg/injection, schedule: Q01DX Z (ip), vehicle: water): 94 % of control and 106 % of control; T/C (dose: 2.5 mg/kg/injection, schedule: Q01DX Z (sc), vehicle: water): 106 % of control; T/C (dose: 2.5 mg/kg/injection, schedule: Q02DX Z (ip), vehicle: water): 109 % of control; T/C (dose: 2.5 mg/kg/injection, schedule: Q03DX Z (ip), vehicle: water): 105 % of control; T/C (dose: 4.0 mg/kg/injection, schedule: Q01DX Z (ip), vehicle: water): 94 % of control; T/C (dose: 4.4 mg/kg/injection, schedule: Q01DX Z (ip), vehicle: carboxymethylcellulose (CMC)): 114 % of control and 117 % of control; T/C (dose: 5.0 mg/kg/injection, schedule: Q01DX005 (iv), vehicle: water): 106 % of control; T/C (dose: 5.0 mg/kg/injection, schedule: Q01DX Z (im), vehicle: water): 118 % of control; T/C (dose: 5.0 mg/kg/injection, schedule: Q01DX Z (ip), vehicle: water): 103 % of control and 117 % of control and 124 % of control; T/C (dose: 5.0 mg/kg/injection, schedule: Q01DX Z (oral), vehicle: water): 112 % of control and 115 % of control; T/C (dose: 5.0 mg/kg/injection, schedule: Q01DX Z (sc), vehicle: water): 122 % of control; T/C (dose: 5.0 mg/kg/injection, schedule: Q02DX Z (ip), vehicle: water): 95 % of control and 103 % of control; T/C (dose: 5.0 mg/kg/injection, schedule: Q03DX Z (ip), vehicle: water): 103 % of control and 106 % of control; T/C (dose: 6.0 mg/kg/injection, schedule: Q01DX Z (ip), vehicle: water): 109 % of control; T/C (dose: 6.6 mg/kg/injection, schedule: Q01DX Z (ip), vehicle: carboxymethylcellulose (CMC)): 117 % of control and 118 % of control; T/C (dose: 6.6 mg/kg/injection, schedule: Q01DX Z (ip), vehicle: other): 117 % of control; T/C (dose: 7.5 mg/kg/injection, schedule: Q01DX Z (ip), vehicle: water): 115 % of control; T/C (dose: 8.0 mg/kg/injection, schedule: Q01DX Z (ip), vehicle: water): 97 % of control and 101 % of control; T/C (dose: 9.0 mg/kg/injection, schedule: Q01DX Z (ip), vehicle: water): 120 % of control; T/C (dose: 10.0 mg/kg/injection, schedule: Q01DX005 (iv), vehicle: water): 114 % of control; T/C (dose: 10.0 mg/kg/injection, schedule: Q01DX Z (im), vehicle: water): 97 % of control; T/C (dose: 10.0 mg/kg/injection, schedule: Q01DX Z (ip), vehicle: water): 117 % of control; T/C (dose: 10.0 mg/kg/injection, schedule: Q01DX Z (sc), vehicle: water): 100 % of control; T/C (dose: 10.0 mg/kg/injection, schedule: Q02DX Z (ip), vehicle: water): 111 % of control and 112 % of control; T/C (dose: 10.0 mg/kg/injection, schedule: Q02DX Z (oral), vehicle: water): 121 % of control; T/C (dose: 12.0 mg/kg/injection, schedule: Q01DX Z (ip), vehicle: water): 114 % of control and 122 % of control; T/C (dose: 12.5 mg/kg/injection, schedule: Q01DX Z (ip), vehicle: water): 120 % of control; T/C (dose: 15.0 mg/kg/injection, schedule: Q01DX Z (ip), vehicle: other): 151 % of control; T/C (dose: 15.0 mg/kg/injection, schedule: Q01DX Z (ip), vehicle: water): 95 % of control; T/C (dose: 20.0 mg/kg/injection, schedule: Q01DX001 (ip), vehicle: water): 106 % of control; T/C (dose: 20.0 mg/kg/injection, schedule: Q01DX Z (ip), vehicle: water): 98 % of control and 104 % of control; T/C (dose: 20.0 mg/kg/injection, schedule: Q07DX003 (ip), vehicle: water): 123 % of control; T/C (dose: 22.0 mg/kg/injection, schedule: Q01DX Z (ip), vehicle: carboxymethylcellulose (CMC)): 92 % of control; T/C (dose: 30.0 mg/kg/injection, schedule: Q01DX001 (ip), vehicle: water): 114 % of control; T/C (dose: 30.0 mg/kg/injection, schedule: Q02DX Z (ip), vehicle: water): 120 % of control; T/C (dose: 30.0 mg/kg/injection, schedule: Q02DX Z (oral), vehicle: water): 90 % of control; T/C (dose: 30.0 mg/kg/injection, schedule: Q03DX Z (ip), vehicle: water): 124 % of control; T/C (dose: 30.0 mg/kg/injection, schedule: Q07DX003 (ip), vehicle: water): 103 % of control; T/C (dose: 33.0 mg/kg/injection, schedule: Q01DX Z (ip), vehicle: carboxymethylcellulose (CMC)): 114 % of control; T/C (dose: 40.0 mg/kg/injection, schedule: Q01DX001 (ip), vehicle: water): 114 % of control; T/C (dose: 40.0 mg/kg/injection, schedule: Q01DX Z (ip), vehicle: water): 98 % of control and 102 % of control; T/C (dose: 40.0 mg/kg/injection, schedule: Q01DX Z (oral), vehicle: water): 92 % of control; T/C (dose: 40.0 mg/kg/injection, schedule: Q03DX Z (ip), vehicle: water): 88 % of control; T/C (dose: 80.0 mg/kg/injection, schedule: Q01DX001 (ip), vehicle: saline): 117 % of control; T/C (dose: 80.0 mg/kg/injection, schedule: Q07DX Z (ip), vehicle: saline): 114 % of control; T/C (dose: 160.0 mg/kg/injection, schedule: Q07DX Z (ip), vehicle: saline): 105 % of control

**Q.** For `O=[N+]([O-])c1cccc2c([N+](=O)[O-])cccc12`, which T/C (dose: 100.0 mg/kg/injection, schedule: Q01DX009 (ip), vehicle: saline sonified) is on record?
**A.** 107 % of control

**Q.** And the T/C [1]?
**A.** 95 % of control

**Q.** And the T/C (dose: 200.0 mg/kg/injection, schedule: Q01DX009 (ip), vehicle: saline sonified)?
**A.** 101 % of control

**Q.** What about the T/C [2] of the same compound?
**A.** 92 % of control

**Q.** And the T/C (dose: 400.0 mg/kg/injection, schedule: Q01DX009 (ip), vehicle: saline sonified)?
**A.** 109 % of control

**Q.** What about the T/C (dose: 400.0 mg/kg/injection, schedule: Q04DX003 (ip), vehicle: Klucel (hydroxypropylcellulose) (HPC)) of the same compound?
**A.** 90 % of control

**Q.** `CN(C)C(=O)Nc1cccnc1` was tested. Which T/C [3] did it give?
**A.** 97 % of control

**Q.** What about the T/C (dose: 150.0 mg/kg/injection, schedule: Q04DX003 (ip), vehicle: saline) of the same compound?
**A.** 106 % of control

**Q.** What about the T/C (dose: 300.0 mg/kg/injection, schedule: Q04DX003 (ip), vehicle: saline) of the same compound?
**A.** 101 % of control

**Q.** For `O=C1c2cc(Br)ccc2-c2c(Cl)cc(Br)cc21`, which T/C [4] is on record?
**A.** 105 % of control

**Q.** And the T/C [5]?
**A.** 97 % of control

**Q.** What about the T/C [6] of the same compound?
**A.** 105 % of control

**Q.** What does the source list for `COC(=O)N1C2CCC(C2=C(C)C)N1C(=O)OC`?
**A.** T/C (dose: 50.0 mg/kg/injection, schedule: Q04DX003 (ip), vehicle: Klucel (hydroxypropylcellulose) (HPC)): 105 % of control; T/C [1]: 102 % of control; T/C [2]: 94 % of control

**Q.** With `CCCCCC(C)NC(=O)NCCCl` (centres undefined) as the compound, how does the T/C (dose: 100.0 mg/kg/injection, schedule: Q04DX002 (ip), vehicle: Klucel (hydroxypropylcellulose) (HPC)) read?
**A.** 89 % of control

**Q.** And the T/C (dose: 200.0 mg/kg/injection, schedule: Q04DX002 (ip), vehicle: Klucel (hydroxypropylcellulose) (HPC))?
**A.** 92 % of control

**Q.** What about the T/C (dose: 400.0 mg/kg/injection, schedule: Q04DX002 (ip), vehicle: Klucel (hydroxypropylcellulose) (HPC)) of the same compound?
**A.** 87 % of control

**Q.** How did the T/C [4] turn out when `N#CC(c1ccccc1)c1cccc(C(=O)O)c1` (centres undefined) was run?
**A.** 105 % of control

**Q.** And the T/C [5]?
**A.** 86 % of control

**Q.** And the T/C [6]?
**A.** 91 % of control

**Q.** With `Nc1ccn(C2OC(COC(c3ccccc3)(c3ccccc3)c3ccccc3)C(O)C2O)c(=O)n1` (centres undefined) as the compound, how does the T/C (dose: 100.0 mg/kg/injection, schedule: Q01DX005 (ip), vehicle: saline) read?
**A.** 101 % of control

**Q.** And the T/C (dose: 200.0 mg/kg/injection, schedule: Q01DX005 (ip), vehicle: saline)?
**A.** 112 % of control

**Q.** `CCC(CCCN(CC)CCc1ccccc1)OC(=O)c1cc(OC)c(OC)c(OC)c1` (centres undefined) was tested. Which T/C (dose: 4.68 mg/kg/injection, schedule: Q01DX009 (ip), vehicle: saline) did it give?
**A.** 106 % of control

**Q.** And the T/C (dose: 9.37 mg/kg/injection, schedule: Q01DX009 (ip), vehicle: saline)?
**A.** 100 % of control

**Q.** What about the T/C (dose: 18.75 mg/kg/injection, schedule: Q01DX009 (ip), vehicle: saline) of the same compound?
**A.** 100 % of control

**Q.** What about the T/C (dose: 18.75 mg/kg/injection, schedule: Q04DX003 (ip), vehicle: saline) of the same compound?
**A.** 118 % of control

**Q.** What about the T/C (dose: 37.5 mg/kg/injection, schedule: Q01DX009 (ip), vehicle: saline) of the same compound?
**A.** 100 % of control

**Q.** What about the T/C (dose: 37.5 mg/kg/injection, schedule: Q04DX003 (ip), vehicle: saline) of the same compound?
**A.** 97 % of control

**Q.** What about the T/C (dose: 75.0 mg/kg/injection, schedule: Q01DX009 (ip), vehicle: saline) of the same compound?
**A.** 95 % of control

**Q.** What about the T/C [3] of the same compound?
**A.** 103 % of control
